Values of other authors as cited in PMC9762682, “Tocotrienols: Exciting Biological and Pharmacological Properties of Tocotrienols and Naturally Occurring Compounds, Part II” (Annals of clinical case reports, 2022).
Like-named read-outs stand apart in the source and are kept apart here. Marks after values point to notes of the source that are not given here.

Key:
Breast cancer cells = test system: Breast cancer cells; parameters: method as in PMID 29606130; value at effective dose: unit not given here;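 on IC50: anti-proliferation of cancer cells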
Melanoma cells = test system: Melanoma cells; parameters: method as in PMID 29606130
Liver cancer cells = test system: Liver cancer cells; parameters: method as in PMID 29606130; value at effective dose: unit not given here
Prostate cancer cells = test system: Prostate cancer cells; parameters: method as in PMID 29606130; value at effective dose: scale not given here
B-Lymphocyte cells = test system: B-Lymphocyte cells; parameters: method as in PMID 29606130; value at effective dose: unit not given here
Hela cells = test system: Hela cells; parameters: method as in PMID 29606130; value at effective dose: unit not given here;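 on IC50: anti-proliferation of cancer cells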
Lung cancer cells = test system: Lung cancer cells; parameters: method as in PMID 29606130; value at effective dose: unit not given here
Pancreas cancer cells = test system: Pancreas cancer cells; parameters: method as in PMID 29606130; value at effective dose: unit not given here
T-cells (Jurkat) = test system: T-cells (Jurkat); parameters: method as in PMID 29606130; value at effective dose: unit not given here
[1] = parameters: method as in ref 14 = [14]; PMID 27493840; doi:10.4172/2155-9880.1000434; 14. Qureshi AA , Khan DA , Saleem S , Silswal N , Trias AM , Tan B , Pharmacokinetics and bioavailability of Annatto δ-tocotrienol in healthy fed subjects . J Clin Exp Cardiol . 2015; 6 : 11 . 10.417; details: for time of appearance in the plasma: after δ-tocotrienol administration to well-fed subjects; for Elimination of Half-life time (t1/2) / Elimination rate constant (ke) / Plasma Peak Concentration (Cmax) / Time to achieve plasma peak (Tmax): healthy fed subjects
[2] = parameters: method as in ref 16 = [16]; PMID 27493840; doi:10.4172/2155-9880.1000434; 16. Qureshi AA , Khan DA , Silswal N , Saleem S , Qureshi N . Evaluation of pharmacokinetics and bioavailability of higher doses of δ-tocotrienol in healthy fed humans . J Clin Exp Cardiol . 2016; 7
[3] = plasma tocol after single 125 mg δ-tocotrienol dose
[4] = plasma tocol after single 250 mg δ-tocotrienol dose
[5] = plasma tocol after single 500 mg δ-tocotrienol dose
[6] = 0 Hr., single dose 750 mg δ-tocotrienol
[7] = 0 Hr., single dose 1000 mg δ-tocotrienol
[8] = 1 hr., single dose 750 mg δ-tocotrienol
[9] = 1 hr., single dose 1000 mg δ-tocotrienol
[10] = 2 hr., single dose 750 mg δ-tocotrienol
[11] = 2 hr., single dose 1000 mg δ-tocotrienol
[12] = 4 hr., single dose 750 mg δ-tocotrienol
[13] = 4 hr., single dose 1000 mg δ-tocotrienol
[14] = 6 hr., single dose 750 mg δ-tocotrienol
[15] = 6 hr., single dose 1000 mg δ-tocotrienol
[16] = 8 hr., single dose 750 mg δ-tocotrienol
[17] = 8 hr., single dose 1000 mg δ-tocotrienol
[18] = plasma tocol after single dose 750 mg δ-tocotrienol
[19] = plasma tocol after single dose 1000 mg δ-tocotrienol
[20] = single dose 750 mg δ-tocotrienol
[21] = single dose 1000 mg δ-tocotrienol

In the case of `COc1cc2c(cc1O)CC[C@@H]1[C@@H]2CC[C@]2(C)[C@@H](O)CC[C@@H]12` [2-Methoxyestradiol], the IC50 (Breast cancer cells) is given as 10 µM, the effective dose (Breast cancer cells) is given as 20 µM and the “percentage of control at IC50 dose” value (Breast cancer cells) is given as 45%. The “percentage of control at effective dose” value (Breast cancer cells) was 44%, the “value at effective dose” value (Breast cancer cells) was 8.0 ± 2.0 and the effective dose (Melanoma cells) was 10 µM. For the same compound, the “percentage of control at IC50 dose” value (Melanoma cells) was 25%, the “percentage of control at effective dose” value (Melanoma cells) was 11% and the IC50 (Liver cancer cells) was 5 µM. For the same compound, the “percentage of control at IC50 dose” value (Liver cancer cells) was 45%, the effective dose (Liver cancer cells; 48 h) was 10 µM and the “percentage of control at effective dose” value (Liver cancer cells; 48 h) was 27%. The “value at effective dose” value (Liver cancer cells; 48 h) was 19.7 ± 2.1, the “percentage of control at IC50 dose” value (Prostate cancer cells) was 39% and the effective dose (Prostate cancer cells; 48 h) was 10 µM. The “percentage of control at effective dose” value (Prostate cancer cells; 48 h) was 30%, the “value at effective dose” value (Prostate cancer cells; 48 h) was 1.7 ± 1.5 and the effective dose (B-Lymphocyte cells) was 5 µM. For the same compound, the “percentage of control at IC50 dose” value (B-Lymphocyte cells) was 5%, the “percentage of control at effective dose” value (B-Lymphocyte cells) was 33% and the “value at effective dose” value (B-Lymphocyte cells) was 4.0 ± 2.0. For the same compound, the IC50 (Hela cells) was 2.5 µM, the “percentage of control at IC50 dose” value (Hela cells) was 48% and the effective dose (Hela cells; 48 h) was 20 µM. The “percentage of control at effective dose” value (Hela cells; 48 h) was 13%, the “value at effective dose” value (Hela cells; 48 h) was 4.3 ± 1.5 and the effective dose (Lung cancer cells) was 10 µM. For the same compound, the “percentage of control at IC50 dose” value (Lung cancer cells) was 17%, the “percentage of control at effective dose” value (Lung cancer cells) was 11% and the “value at effective dose” value (Lung cancer cells) was 2.3 ± 1.5. The IC50 (Pancreas cancer cells) was 40 µM, the “percentage of control at IC50 dose” value (Pancreas cancer cells) was 42% and the effective dose (Pancreas cancer cells; 48 h) was 40 µM. The “percentage of control at effective dose” value (Pancreas cancer cells; 48 h) was 42%, the “value at effective dose” value (Pancreas cancer cells; 48 h) was 20.0 ± 2.0 and the effective dose (T-cells (Jurkat)) was 5 µM. For the same compound, the “percentage of control at IC50 dose” value (T-cells (Jurkat)) was 8%, the “percentage of control at effective dose” value (T-cells (Jurkat)) was 8% and the “value at effective dose” value (T-cells (Jurkat)) was 31.3 ± 5.7.
For `CC(C)=CCC/C(C)=C/CC/C(C)=C/CC[C@]1(C)CCc2cc(O)c(C)c(C)c2O1` [γ-Tocotrienol], the “time of appearance in the plasma” value [1] is listed as greater than 2 h, the “Elimination of Half-life time (t1/2)” value [1, 3] is listed as 3.82 ± 0.99^a h and the “Elimination rate constant (ke)” value [1, 3] is listed as 0.113 ± 0.026^a h-1. For the same compound, the “Plasma Peak Concentration (Cmax)” value [1, 3] was 281.34 ± 21.22^a ng/mL, the “Time to achieve plasma peak (Tmax)” value [1, 3] was 3.00 h and the “Elimination rate constant (ke)” value [1, 4] was 0.133 ± 0.037^a h-1. For the same compound, the “Time to achieve plasma peak (Tmax)” value [1, 4] was 3.00 h, the “Elimination of Half-life time (t1/2)” value [1, 5] was 2.25 ± 0.32^c h and the “Elimination rate constant (ke)” value [1, 5] was 0.097 ± 0.021^b h-1. The “Plasma Peak Concentration (Cmax)” value [1, 5] was 1224.64 ± 61.28^c ng/mL, the “Time to achieve plasma peak (Tmax)” value [1, 5] was 3.55 ± 0.52 h and the plasma tocol level [2, 6] was 795 ± 19 ng/mL. For the same compound, the plasma tocol level [2, 7] was 843 ± 13 ng/mL, the plasma tocol level [2, 8] was 1035 ± 10 ng/mL and the plasma tocol level [2, 9] was 1065 ± 7 ng/mL. The plasma tocol level [2, 10] was 1183 ± 16 ng/mL, the plasma tocol level [2, 11] was 1251 ± 32 ng/mL and the plasma tocol level [2, 12] was 1352 ± 23 ng/mL. The plasma tocol level [2, 13] was 1387 ± 10 ng/mL, the plasma tocol level [2, 14] was 361 ± 74 ng/mL and the plasma tocol level [2, 15] was 484 ± 17 ng/mL. For the same compound, the plasma tocol level [2, 16] was 329 ± 17 ng/mL, the plasma tocol level [2, 17] was 374 ± 27 ng/mL and the “Area Under the Curve-t0 - ∞ (AUC0-∞)” value [2, 18] was 7895.14 ± 73.43^b ng/ml. For the same compound, the “Elimination of Half-life time (t1/2)” value [2, 18] was 1.96 ± 0.06^b h, the “Elimination rate constant (ke)” value [2, 18] was 0.353 ± 0.125^a h-1 and the “Peak Plasma Concentration (Cmax)” value [2, 18] was 1352.41 ± 28.14^b ng/ml. For the same compound, the “Time to achieve plasma peak (Tmax)” value [2, 18] was 4.00^a h, the “Area Under the Curve-t0 - ∞ (AUC0-∞)” value [2, 19] was 8626.41 ± 277.17^b ng/ml and the “Elimination of Half-life time (t1/2)” value [2, 19] was 2.12 ± 0.14^b h. The “Elimination rate constant (ke)” value [2, 19] was 0.328 ± 0.286^a h-1, the “Time to achieve plasma peak (Tmax)” value [2, 19] was 4.00^a h and the “Total tocols (sum of 0-8 h)” value [2, 20] was 5055 ng/mL. For the same compound, the “Total tocols (sum of 0-8 h)” value [2, 21] was 5404 ng/mL.
For `Cc1cc(O)cc2c1O[C@](C)(CCC[C@H](C)CCC[C@H](C)CCCC(C)C)CC2` [δ-Tocopherol], the “time of appearance in the plasma” value [1] is listed as greater than 2 h, the “Elimination of Half-life time (t1/2)” value [1, 3] is listed as 3.25 ± 0.79^a h and the “Elimination rate constant (ke)” value [1, 3] is listed as 0.118 ± 0.032^a h-1. For the same compound, the “Plasma Peak Concentration (Cmax)” value [1, 3] was 341.18 ± 62.19^a ng/mL, the “Time to achieve plasma peak (Tmax)” value [1, 3] was 6.00 h and the “Elimination of Half-life time (t1/2)” value [1, 4] was 5.22 ± 0.62^b h. The “Elimination rate constant (ke)” value [1, 4] was 0.076 ± 0.008^b h-1, the “Plasma Peak Concentration (Cmax)” value [1, 4] was 756.27 ± 72.70^b ng/mL and the “Time to achieve plasma peak (Tmax)” value [1, 4] was 4.18 ± 0.60 h. The “Elimination of Half-life time (t1/2)” value [1, 5] was 3.58 ± 0.67^a h, the “Elimination rate constant (ke)” value [1, 5] was 0.183 ± 0.027^c h-1 and the “Plasma Peak Concentration (Cmax)” value [1, 5] was 1027.73 ± 71.93^c ng/mL. For the same compound, the “Time to achieve plasma peak (Tmax)” value [1, 5] was 3.00 h, the plasma tocol level [2, 6] was 894 ± 69 ng/mL and the plasma tocol level [2, 7] was 888 ± 22 ng/mL. For the same compound, the plasma tocol level [2, 8] was 949 ± 11 ng/mL, the plasma tocol level [2, 9] was 986 ± 18 ng/mL and the plasma tocol level [2, 10] was 1195 ± 69 ng/mL. For the same compound, the plasma tocol level [2, 11] was 1266 ± 25 ng/mL, the plasma tocol level [2, 12] was 1348 ± 93 ng/mL and the plasma tocol level [2, 13] was 1473 ± 71 ng/mL. The plasma tocol level [2, 14] was 726 ± 51 ng/mL, the plasma tocol level [2, 15] was 765 ± 44 ng/mL and the plasma tocol level [2, 16] was 432 ± 45 ng/mL. The plasma tocol level [2, 17] was 500 ± 25 ng/mL, the “Total tocols (sum of 0-8 h)” value [2, 20] was 5544 ng/mL and the “Total tocols (sum of 0-8 h)” value ([2]; single dose 750 mg δ-tocotrienol, listed as δ-tocopherol) was 13117 ng/mL. For the same compound, the “Total tocols (sum of 0-8 h)” value [2, 21] was 5878 ng/mL.
